Key:
[1] = target: T1, recombinant human ALK5 (TGF-βR1) protein (Homo sapiens, UniProt P36897); test: Biochemical ALK5 (TGF-βR1) assay to measure pKi (LANCE Ultra ULight kinase assay); conditions: apparent pKi, converted from pIC50 by Cheng-Prusoff
T1 construct: purchased Life Technologies PR9075A
T1 sequence (P36897 34-503): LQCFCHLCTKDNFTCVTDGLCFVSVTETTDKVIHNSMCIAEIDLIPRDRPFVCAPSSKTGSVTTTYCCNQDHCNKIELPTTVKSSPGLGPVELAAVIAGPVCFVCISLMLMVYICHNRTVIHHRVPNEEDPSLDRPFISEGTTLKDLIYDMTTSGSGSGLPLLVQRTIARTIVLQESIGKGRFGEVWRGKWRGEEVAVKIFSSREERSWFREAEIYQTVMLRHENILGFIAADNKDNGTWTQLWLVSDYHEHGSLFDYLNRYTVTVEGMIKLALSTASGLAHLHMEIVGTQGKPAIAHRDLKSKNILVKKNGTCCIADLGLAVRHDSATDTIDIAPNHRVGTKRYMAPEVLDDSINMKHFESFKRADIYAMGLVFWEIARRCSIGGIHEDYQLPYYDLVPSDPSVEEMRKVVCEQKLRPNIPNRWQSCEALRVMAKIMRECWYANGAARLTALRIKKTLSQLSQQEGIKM
Outline: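 Europium TR-FRET kinase assay: the enzyme is exposed to compound for 60 min at room temperature, and reaction with ATP runs 60 min at 37 °C. Percent inhibition relative to DMSO and SD-208 controls gives pIC50, which is converted to pKi.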

[2] = test system: TGF-β-stimulated SMAD3 phosphorylation in BEAS-2B cells; test: Cellular ALK5 potency assay, inhibition of TGF-β stimulated pSMAD3 formation in BEAS-2B cells; format: cell-based; conditions: Homo sapiens, pSMAD3, TGF-β 10 ng/mL, read-out: BEAS2B pIC50 (converted)
Outline: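 Read-out is AlphaLISA detection of phospho-SMAD3 in lysates of BEAS-2B human lung epithelial cells. Cells are exposed to compound for 1 hour, then to 10 ng/mL TGF-β (final) for 30 minutes. Values are pIC50 from concentration–response curves.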

Structure (SMILES) | Ki [1] [nM] | IC50 [2] [nM]
Cc1cccc(-c2nccc(Nc3ccnc(Nc4ccc(CN5CCN(C)CC5)cc4)n3)n2)n1 [Compound 305, N2-[4-[(4-methylpiperazin-1-yl)methyl]phenyl]-N4-[2-(6-methyl-2-pyridyl)pyrimidin-4-yl]pyrimidine-2,4-diamine] | 0.0398 to 0.316 | 25.1 to 158
Cc1cccc(-c2nccc(Nc3ccnc(Nc4cccc(S(=O)(=O)N5CCNCC5)c4)n3)n2)n1 [Compound 306, N4-[2-(6-methyl-2-pyridyl)pyrimidin-4-yl]-N2-(3-piperazin-1-ylsulfonylphenyl)pyrimidine-2,4-diamine] | 3.98 to 31.6 | 25.1 to 158
COC(=O)[C@@H]1CN(c2ccc(Nc3nccc(Nc4ccnc(-c5cccc(C)n5)n4)n3)cc2)CCN1 [Compound 307, methyl (2S)-4-[4-[[4-[[2-(6-methyl-2-pyridyl)pyrimidin-4-yl]amino]pyrimidin-2-yl]amino]phenyl]piperazine-2-carboxylate] | 0.0398 to 0.316 | 25.1 to 158
Cc1cccc(-c2nccc(Nc3ccnc(Nc4cccc(C(=O)O[C@H]5CCN(C)C5)c4)n3)n2)n1 [Compound 308, [(3S)-1-methylpyrrolidin-3-yl] 3-[[4-[[2-(6-methyl-2-pyridyl)pyrimidin-4-yl]amino]pyrimidin-2-yl]amino]benzoate] | 0.398 to 3.16 | 200 to 1260
Cc1cccc(-c2nccc(Nc3ccnc(Nc4ccc(NCC5(CO)CNC5)cc4)n3)n2)n1 [Compound 310, [3-[[4-[[4-[[2-(6-methyl-2-pyridyl)pyrimidin-4-yl]amino]pyrimidin-2-yl]amino]anilino]methyl]azetidin-3-yl] methanol] | 0.398 to 3.16 | 25.1 to 158
Cc1cccc(-c2nccc(Nc3ccnc(Nc4ccc(C)c(CN5CCN(C)CC5)c4)n3)n2)n1 [Compound 311, N2-[4-methyl-3-[(4-methylpiperazin-1-yl)methyl]phenyl]-N4-[2-(6-methyl-2-pyridyl)pyrimidin-4-yl]pyrimidine-2,4-diamine] | 0.0398 to 0.316 | 25.1 to 158
COC(=O)c1cc(Nc2nccc(Nc3ccnc(-c4cccc(C)n4)n3)n2)ccc1N1CCNCC1 [Compound 312, methyl 5-[[4-[[2-(6-methyl-2-pyridyl)pyrimidin-4-yl]amino]pyrimidin-2-yl]amino]-2-piperazin-1-yl-benzoate] | 0.0398 to 0.316 | 25.1 to 158
Cc1cccc(-c2nccc(Nc3ccnc(Nc4ccc(CN5CCC(C(=O)O[C@@H]6CCNC6)CC5)cc4)n3)n2)n1 [Compound 313, [(3R)-pyrrolidin-3-yl] 1-[[4-[[4-[[2-(6-methyl-2-pyridyl)pyrimidin-4-yl]amino]pyrimidin-2-yl]amino]phenyl]methyl] piperidine-4-carboxylate] | 0.0398 to 0.316 | 25.1 to 158
Fc1cc(F)c(-c2nccc(Nc3ccnc(Nc4ccc(N5CCC(N6CCCC6)CC5)cc4)n3)n2)cc1Cl [Compound 314, N4-[2-(5-chloro-2,4-difluoro-phenyl)pyrimidin-4-yl]-N2-[4-(4-pyrrolidin-1-yl-1-piperidyl)phenyl]pyrimidine-2,4-diamine] | 0.0398 to 0.316 | 25.1 to 158
Cc1cccc(-c2nccc(Nc3ccnc(Nc4cccc(N)c4)n3)n2)n1 [Compound 315, N2-(3-aminophenyl)-N4-[2-(6-methyl-2-pyridyl)pyrimidin-4-yl]pyrimidine-2,4-diamine] | 0.0398 to 0.316 | ≤ 20
CC(=O)Nc1ccc(Nc2nccc(Nc3ccnc(-c4cccc(C)n4)n3)n2)cc1 [Compound 316, N-[4-[[4-[[2-(6-methyl-2-pyridyl)pyrimidin-4-yl]amino]pyrimidin-2-yl]amino]phenyl]acetamide] | 0.398 to 3.16 | 25.1 to 158
Cc1cccc(-c2nccc(Nc3ccnc(Nc4ccc(C(=O)N5CCN(C(C)C)CC5)cc4)n3)n2)n1 [Compound 317, (4-isopropylpiperazin-1-yl)-[4-[[4-[[2-(6-methyl-2-pyridyl)pyrimidin-4-yl]amino]pyrimidin-2-yl]amino]phenyl]methanone] | 0.0398 to 0.316 | 25.1 to 158

From US20230399312A1, “SUBSTITUTED PYRIMIDINES AND METHODS OF USE” (THERAVANCE BIOPHARMA R&D IP, LLC, priority 2020, published 2023)
